From ChEMBL document CHEMBL1158100, “Sesquiterpenes from Thapsia nitida var. meridionalis and Thapsia nitida var. nitida” (J Nat Prod, 2006)
Active and inactive are the calls of the source. The calls are words filed in the database; no cut-off is given here.

Experiment: Inhibition of sarcoplasmic/endoplasmic reticulum calcium ATPase at upto 10 uM
With C=C1C(=O)O[C@@H]2[C@H]1CC[C@]1(C)[C@@H]3O[C@@H]3[C@H](OC(=O)C=C(C)C)C(=C)[C@@H]21 the Activity was “inactive”.

Experiment: Inhibition of sarcoplasmic/endoplasmic reticulum calcium ATPase at upto 100 uM
In the case of C=C1CC[C@@H]2[C@@H](OC(=O)[C@@]2(C)OC(=O)/C(C)=C\C)[C@H]2[C@@H]1C[C@@H](OC(C)=O)[C@@]2(C)O, the Activity is reported as “inactive”. For C/C=C(/C)C(=O)O[C@]1(C)C(=O)O[C@H]2[C@@H]3C(C)=CC[C@@H]3[C@@](C)(O)CC[C@H]21, the Activity was “inactive”. For C=C1C(=O)O[C@@H]2[C@H]1CC[C@]1(C)[C@@H]3O[C@@H]3[C@H](OC(=O)CC(C)C)C(=C)[C@@H]21, the Activity was “inactive”. In the case of C=C1C(=O)O[C@@H]2[C@H]1CC[C@]1(C)[C@@H]3O[C@@H]3[C@H](OC(=O)C=C(C)C)C(=C)[C@@H]21, the Activity is reported as “inactive”. In the case of C=C1CC[C@@H]2[C@@H](OC(=O)[C@@]2(C)OC(=O)/C(C)=C\C)[C@@H]2C(C)=CC[C@H]12, the Activity is reported as “inactive”. With C=C1CC[C@@H]2[C@@H](OC(=O)[C@@]2(C)OC(=O)/C(C)=C/C)[C@H]2[C@@H]1C[C@@H](OC(C)=O)[C@@]2(C)O the Activity was “inactive”.
